Patent US20230339970A1, “CASEIN KINASE 1 DELTA MODULATORS” (priority 2020, published 2023)
pIC50: −log10 of the molar value.

How the values were obtained:
[1] = biological target: T1, human recombinant GST cleaved CSNK1D (Homo sapiens, UniProt P48730); test: Purified Enzyme Assay (ADP-Glo CSNK1D Kinase Assay); assay type: biochemical; details: 2 nM CSNK1D; peptide substrate 150 μM; ATP 20 μM; 45 minutes at room temperature
T1 construct: GST (cleaved yes); purchased University of Dundee clone DU 19064
T1 sequence (P48730 whole entry): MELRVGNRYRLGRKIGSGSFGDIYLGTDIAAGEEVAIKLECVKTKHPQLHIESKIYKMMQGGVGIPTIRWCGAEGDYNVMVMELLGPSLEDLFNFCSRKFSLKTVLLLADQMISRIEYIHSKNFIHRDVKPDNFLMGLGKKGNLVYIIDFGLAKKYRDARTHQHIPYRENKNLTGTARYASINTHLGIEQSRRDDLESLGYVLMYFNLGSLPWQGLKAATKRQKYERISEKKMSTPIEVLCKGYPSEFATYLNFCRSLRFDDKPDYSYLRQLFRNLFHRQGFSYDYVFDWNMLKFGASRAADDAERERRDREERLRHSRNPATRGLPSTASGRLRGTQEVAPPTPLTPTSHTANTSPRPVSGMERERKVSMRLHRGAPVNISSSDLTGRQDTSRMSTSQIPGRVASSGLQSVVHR
Summary of the method: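 GST-cleaved human recombinant CSNK1D phosphorylates peptide PLSRTL-pS-VASLPGL with ATP; compounds added in dose-response, 45 min at room temperature. ADP formed measured by ADP-Glo luminescence and converted to percent activity.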

[2] = biological target: T2, human CSNK1D (Homo sapiens, UniProt P48730); test: Whole Cell nBRET CSNK1D Binding Assay; details: living CHO cells stably expressing human CSNK1D tagged with nanoluciferase; NanoBret tracer 130 nM; 2 hours at 37 C
T2 construct: expressed in transfected cells
T2 sequence (P48730 whole entry): as above

Compound	pIC50 [1]	pIC50 [2]
CC1(C)Cn2nc(-c3ccc(F)cn3)c(-c3ccnc4[nH]ccc34)c2CO1 [Example 147, 2-(5-Fluoropyridin-2-yl)-6,6-dimethyl-3-(1H-pyrrolo[2,3-b]pyridin-4-yl)-6,7-dihydro-4H-pyrazolo[5,1-c][1,4]oxazine]	9.00	7.96
Fc1ccc(-c2nn3c(c2-c2ccnc4[nH]ncc24)CC2(C3)CC2(F)F)cc1 (single isomer, unassigned) [Example 251, (*R)-1′,1′-Difluoro-2-(4-fluorophenyl)-3-(1H-pyrazolo[3,4-b]pyridin-4-yl)spiro[4,6-dihydropyrrolo[1,2-b]pyrazole-5,2′-cyclopropane]]	7.59	6.73
Cc1nc(-c2c(-c3ccc(F)cn3)nn3c2CC[C@H]2[C@@H]3C2(F)F)c2cn[nH]c2n1 (single isomer, unassigned) [Example 361, (5a*S,6a*R)-6,6-Difluoro-2-(5-fluoropyridin-2-yl)-3-(6-methyl-1H-pyrazolo[3,4-d]pyrimidin-4-yl)-5,5a,6,6a-tetrahydro-4H-cyclopropa[e]pyrazolo[1,5-a]pyridine]	6.30	6.46
COc1cnccc1-c1c(-c2ccc(F)cn2)nn2c1COC(C)(C)C2 [Example 130, 2-(5-Fluoropyridin-2-yl)-3-(3-methoxypyridin-4-yl)-6,6-dimethyl-6,7-dihydro-4H-pyrazolo[5,1-c][1,4]oxazine]	7.51	6.20
CC1(CF)CCc2c(-c3cc(F)ncc3F)c(-c3ccc(F)cn3)nn2C1 (racemic) [Example 288, 3-(2,5-Difluoro-4-pyridyl)-6-(fluoromethyl)-2-(5-fluoro-2-pyridyl)-6-methyl-5,7-dihydro-4H-pyrazolo[1,5-a]pyridine]	6.62	5.39
Cc1cc(-c2c(-c3ccc(F)c(C)n3)nn3c2COC(C)(C)C3)c2c(C)n[nH]c2n1 [Example 393, 3-(3,6-Dimethyl-1H-pyrazolo[3,4-b]pyridin-4-yl)-2-(5-fluoro-6-methylpyridin-2-yl)-6,6-dimethyl-6,7-dihydro-4H-pyrazolo[5,1-c][1,4]oxazine]	7.31	5.56
Fc1ccc(-c2nn3c(c2-c2ccnc4[nH]ncc24)CCC(F)(COC(F)(F)F)C3)nc1 (single isomer, unassigned) [Example 317, (*R)-4-[6-Fluoro-2-(5-fluoro-2-pyridyl)-6-(trifluoromethoxymethyl)-5,7-dihydro-4H-pyrazolo[1,5-a]pyridin-3-yl]-1H-pyrazolo[3,4-b]pyridine]	6.95	5.07
Cc1nc2[nH]nc(C)c2c(-c2c(-c3ccc(F)cn3)nn3c2CC[C@]2(C3)CC2(F)F)c1F (single isomer, unassigned) [Example 334, (*R)-2,2-Difluoro-3′-(5-fluoro-3,6-dimethyl-1H-pyrazolo[3,4-b]pyridin-4-yl)-2′-(5-fluoropyridin-2-yl)-4′,5′-dihydro-7′H-spiro[cyclopropane-1,6′-pyrazolo[1,5-a]pyridine]]	7.15	5.81
Cc1n[nH]c2ncc(F)c(-c3c(-c4ccc(F)cn4)nn4c3CC[C@@H]3C[C@@H]34)c12 (single isomer, unassigned) [Example 345, (5a*R,6a*S)-3-(5-Fluoro-3-methyl-1H-pyrazolo[3,4-b]pyridin-4-yl)-2-(5-fluoropyridin-2-yl)-5,5a,6,6a-tetrahydro-4H-cyclopropa[e]pyrazolo[1,5-a]pyridine]	7.47	6.43
[2H]C([2H])([2H])[C@@]1(C(F)(F)F)Cn2nc(-c3ccc(F)cn3)c(-c3cc(C)nc4[nH]nc(C)c34)c2CO1 (single isomer, unassigned) [Example 429, (*S)-3-(3,6-Dimethyl-1H-pyrazolo[3,4-b]pyridin-4-yl)-2-(5-fluoropyridin-2-yl)-6-(methyl-d3)-6-(trifluoromethyl)-6,7-dihydro-4H-pyrazolo[5,1-c][1,4]oxazine]	6.88	5.65
Fc1ccc(-c2nn3c(c2-c2ccnc4[nH]ncc24)COC2(C3)CC2(F)F)nc1 (single isomer, unassigned) [Example 434, (*S)-1′. 1′-Difluoro-2-(5-fluoro-2-pyridyl)-3-(1H-pyrazolo[3,4-b]pyridin-4-yl)spiro[4,7-dihydropyrazolo[5,1-c][1,4]oxazine-6,2′-cyclopropane]]	6.78	5.08

Continued, values first:

pIC50 [1]	pIC50 [2]	Compound
7.70	6.52	COCC1(F)CCc2c(-c3cc(C)nc4[nH]ccc34)c(-c3ccc(F)cn3)nn2C1 (single isomer, unassigned) [Example 299, (*R)-4-[6-Fluoro-2-(5-fluoro-2-pyridyl)-6-(methoxymethyl)-5,7-dihydro-4H-pyrazolo[1,5-a]pyridin-3-yl]-6-methyl-1H-pyrrolo[2,3-b]pyridine]
8.70	8.15	CC1(C)Cc2c(-c3ccnc4[nH]ccc34)c(-c3ccc(F)cn3)nn2C1 [Example 233, 4-[2-(5-Fluoro-2-pyridyl)-5,5-dimethyl-4,6-dihydropyrrolo[1,2-b]pyrazol-3-yl]-1H-pyrrolo[2,3-b]pyridine]
8.05	6.78	Cc1nc(-c2nn3c(c2-c2ccnc4[nH]ncc24)COC(C)(C)C3)ccc1F [Example 164, 2-(5-Fluoro-6-methylpyridin-2-yl)-6,6-dimethyl-3-(1H-pyrazolo[3,4-b]pyridin-4-yl)-6,7-dihydro-4H-pyrazolo[5,1-c][1,4]oxazine]
8.22	7.48	Fc1ccc(-c2nn3c(c2-c2ccnc4[nH]ncc24)OCC2(C3)CC2(F)F)cc1 (single isomer, unassigned) [Example 477, (*R)-2,2-Difluoro-2′-(4-fluorophenyl)-3′-1H-pyrazolo[3,4-b]pyridin-4-yl)-5′H,7′H-spiro[cyclopropane-1,6′-pyrazolo[5,1-b][1,3]oxazine]]
8.30	7.85	[2H]C([2H])([2H])C1(C([2H])([2H])[2H])Cn2nc(-c3ccc(F)cn3)c(-c3cc(C)nc4[nH]nc(Cl)c34)c2CO1 [Example 405, 3-(3-Chloro-6-methyl-1H-pyrazolo[3,4-b]pyridin-4-yl)-2-(5-fluoropyridin-2-yl)-6,6-bis(methyl-d3)-6,7-dihydro-4H-pyrazolo[5,1-c][1,4]oxazine]
8.10	7.12	Nc1cc(-c2c(-c3ccc(F)cc3)nn3c2CCC(F)(F)C3)ccn1 [Example 41, 4-(6,6-Difluoro-2-(4-fluorophenyl)-4,5,6,7-tetrahydropyrazolo[1,5-a]pyridin-3-yl)pyridin-2-amine]
8.40	6.87	CC[C@]1(C)Cn2nc(-c3ccc(F)cn3)c(-c3ccnc4[nH]ncc34)c2CO1 (single isomer, unassigned) [Example 169, (*R)-6-Ethyl-2-(5-fluoropyridin-2-yl)-6-methyl-3-(1H-pyrazolo[3,4-b]pyridin-4-yl)-6,7-dihydro-4H-pyrazolo[5,1-c][1,4]oxazine]
7.80	6.91	Cc1n[nH]c2nccc(-c3c(-c4ccc(F)cn4)nn4c3CO[C@@](C)(C(F)(F)F)C4)c12 (single isomer, unassigned) [Example 418, (*R)-2-(5-Fluoropyridin-2-yl)-6-methyl-3-(3-methyl-1H-pyrazolo[3,4-b]pyridin-4-yl)-6-(trifluoromethyl)-6,7-dihydro-4H-pyrazolo[5,1-c][1,4]oxazine]
8.52	7.32	Fc1ccc(-c2nn3c(c2-c2ccnc4[nH]ncc24)C2CC2C3)nc1 (racemic) [Example 23, 2-(5-Fluoropyridin-2-yl)-3-(1H-pyrazolo[3,4-b]pyridin-4-yl)-3b,4,4a,5-tetrahydrocyclopropa[3,4]pyrrolo[1,2-b]pyrazole]
8.00	6.70	C[C@@H]1C[C@H](C)Oc2c(-c3ccnc4[nH]ncc34)c(-c3ccc(F)cn3)nn21 (single isomer, unassigned) [Example 202, (5*S,7*R)-2-(5-Fluoro-2-pyridyl)-5,7-dimethyl-3-(1H-pyrazolo[3,4-b]pyridin-4-yl)-6,7-dihydro-5H-pyrazolo[5,1-b][1,3]oxazine]
9.00	8.10	Cc1cc(-c2c(-c3ccc(F)cc3)nn3c2C[C@@H]2C[C@@H]23)c2cn[nH]c2n1 [Example 270]
8.52	7.46	Cc1nc(-c2c(-c3ccc(F)cc3)nn3c2OCC2(CC2)C3)c2cn[nH]c2n1 [Example 465, 2′-(4-Fluorophenyl)-3′-(6-methyl-1H-pyrazolo[3,4-d]pyrimidin-4-yl)-5′H,7′H-spiro[cyclopropane-1,6′-pyrazolo[5,1-b][1,3]oxazine]]
7.89	6.43	Cc1nc(-c2c(-c3ccc(F)cc3)nn3c2CC[C@@]2(C3)CC2(F)F)c2cn[nH]c2n1 (single isomer, unassigned) [Example 335, (*S)-2,2-Difluoro-2′-(4-fluorophenyl)-3′-(6-methyl-1H-pyrazolo[3,4-d]pyrimidin-4-yl)-4′,5′-dihydro-7′H-spiro[cyclopropane-1,6′-pyrazolo[1,5-a]pyridine]]
8.70	7.68	Fc1ccc(-c2nn3c(c2-c2ccnc4[nH]ncc24)OCC(F)(F)C3)cc1 [Example 467, 6,6-Difluoro-2-(4-fluorophenyl)-3-(1H-pyrazolo[3,4-b]pyridin-4-yl)-5,7-dihydropyrazolo[5,1-b][1,3]oxazine]
8.70	7.64	[2H]C([2H])([2H])[C@@]1(C([2H])([2H])F)CCc2c(-c3c(F)cnc4[nH]ncc34)c(-c3ccc(F)cn3)nn2C1 (single isomer, unassigned) [Example 294, (*R)-5-Fluoro-4-(6-(fluoromethyl-d2)-2-(5-fluoropyridin-2-yl)-6-(methyl-d3)-4,5,6,7-tetrahydropyrazolo[1,5-a]pyridin-3-yl)-1H-pyrazolo[3,4-b]pyridine]
